Test systems include SNB-78; DMS-273; KM-20L2; BT-549; Hs-578T; MCF7; DLD-1; XF498.
Common to all, as to test: NCI-60 cell line screen, 48 h

Here are results for 54 compounds from ChEMBL document CHEMBL1201862, “PubChem BioAssay data set” (2004).

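Five concentrations, 48 hours, 96-well plates. The concentration for 50% growth inhibition is given as GI50.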 Calls of active or inactive are those of the source. Rule as the data show it: active = GI50 up to about 1.1 µM and inactive = higher.

Take `COc1ccc2c3c([nH]c2c1[N+](=O)[O-])C(C)N(C(=O)/C=C/c1ccccc1)CC3` (stereo not drawn): the GI50 in the assay on SNB-78 was 7.05 µM (inactive); in the assay on DMS-273, 1.57 µM (inactive); with KM-20L2 it was 4.18 µM (inactive).

On to `CC1=C[C@H](O)[C@@]2(C)[C@@H]([C@@H]1C)[C@H]1CC[C@@H]3[C@@]4(C)CC[C@H](O)C(C)(C)[C@@H]4CC[C@@]3(C)[C@]1(C)C[C@@H]2O`, for which the GI50 in the assay with BT-549 was 23.9 µM (inactive); with Hs-578T, 22.3 µM (inactive).

On to `O=C(/C=C/c1ccccc1)N1CCCCC1`, for which the GI50 in the assay with BT-549, in the assay with Hs-578T and in the assay on MCF7 was > 100 µM (inactive) throughout.

As for `COC(=O)C1=CC(=O)OC1(OO)c1ccc(Br)cc1` (stereo not drawn), the GI50 in the assay with BT-549 and with MCF7 was > 100 µM (inactive) throughout.

Turning to `CCNC(=O)c1ccc(C)c(/N=N/N(C)C)c1`, the GI50 with SNB-78, in the assay with DMS-273, in the assay on DLD-1 and in the assay with KM-20L2 was > 100 µM (inactive) each time.

Regarding `CC1(C)/C(=N\Nc2ccc([N+](=O)[O-])cc2[N+](=O)[O-])C2CCC1C2` (stereo not drawn), the GI50 in the assay on BT-549 was > 100 µM (inactive); in the assay on Hs-578T it was 5.41 µM (inactive); in the assay with MCF7, > 100 µM (inactive).

Regarding `O=c1cc(NNc2ccc(F)cc2)[nH]c(=O)[nH]1`, the GI50 in the assay on BT-549 is 13.6 µM (inactive); in the assay with Hs-578T, 28.4 µM (inactive).

`Nc1nc(SCCc2ccccc2)c2nc[nH]c2n1`: the GI50 in the assay with BT-549 is 47.3 µM (inactive); in the assay on Hs-578T it was 64 µM (inactive).

Take `N#CC(C#N)/N=N/c1ccc(-c2nc3ccccc3[nH]2)cc1`: the GI50 was 11 µM (inactive) in the assay on BT-549, 52 µM (inactive) with Hs-578T and 11.1 µM (inactive) with MCF7.

As to `CCOc1c2c(cc3c1C(=O)c1c(OC)cccc1C3=O)C=C(OC)CC2`, the GI50 in the assay on Hs-578T is > 25 µM (inactive); in the assay with MCF7 it was 24.4 µM (inactive).

For the compound `CCOC(=O)NC(C(=O)OCC)C(F)(F)F` (stereo not drawn), the GI50 in the assay on Hs-578T and in the assay with MCF7 was > 100 µM (inactive) throughout.

As to `OC(CN1CCCCC1)c1ccc(/C=C/c2ccc(Cl)cc2)cc1` (stereo not drawn), the GI50 in the assay with BT-549 was > 100 µM (inactive); with Hs-578T, 50.1 µM (inactive); in the assay on MCF7, > 100 µM (inactive).

As to `O=C(O)C1CC2(C1)CC(C(=O)O)C2` (stereo not drawn), the GI50 with BT-549, in the assay with Hs-578T and with MCF7 was > 100 µM (inactive) each time.

Regarding `N#Cc1c(N)nc2c3c1NC(=O)C(C(N)=O)C3c1ccccc1O2` (stereo not drawn), the GI50 with MCF7 was > 100 µM (inactive).

As for `C1C2CC3CC1CC(c1nn4c(C56CC7CC(CC(C7)C5)C6)nnc4s1)(C2)C3`, the GI50 in the assay on Hs-578T is > 100 µM (inactive).

As to `COc1ccc2c(c1)CCc1c-2n(CCN2CCOCC2)c2ccc(OC)cc12`, the GI50 is > 100 µM (inactive) with BT-549, 61.7 µM (inactive) in the assay on Hs-578T and 85.5 µM (inactive) in the assay with MCF7.

In the case of `CCc1n[nH]c(=O)n1/N=C/c1ccc(/C=N/n2c(CC)n[nH]c2=O)cc1`, the GI50 in the assay with BT-549, in the assay on Hs-578T and in the assay with MCF7 was > 100 µM (inactive) in each case.

As to `NC1=C(NC(=O)Cc2ccccc2F)C(=O)c2ccccc2C1=O`, the GI50 in the assay on DMS-273 is 97.7 µM (inactive); with DLD-1 it was 16.6 µM (inactive); in the assay with KM-20L2, 40.7 µM (inactive).

Consider `COC1OC(C)/C(=N/O)C2OC(C)(C)OC12` (stereo not drawn), for which the GI50 in the assay on BT-549 is > 100 µM (inactive); with Hs-578T, > 100 µM (inactive); in the assay with MCF7, 78.7 µM (inactive).

As to `O=C(Nc1ccccn1)/C(=C\C(=O)c1ccc(Cl)cc1)Nc1ccccc1`, the GI50 with MCF7 was > 10 µM (inactive).

`CCOC(=O)c1ccc(NC(=O)Oc2ccc3c(C)cc(=O)oc3c2)cc1`: the GI50 in the assay on BT-549 is 17.2 µM (inactive); with Hs-578T, 29.6 µM (inactive); with MCF7, 30.8 µM (inactive).

For the compound `CCOC(=O)CSc1[nH]c(NC(=S)Nc2ccccc2)c(C(N)=O)c1C(N)=O`, the GI50 with MCF7 was > 10 µM (inactive).

Turning to `CC#CS(=O)(=O)c1ccccc1`, the results for the GI50 in the assay with BT-549, in the assay on Hs-578T and in the assay on MCF7 were 8.45 µM (inactive), 17.2 µM (inactive) and 6.87 µM (inactive), respectively.

Regarding `CCCCCCCCCCCCCCCCCCNC(=O)C(N)Cc1ccc(OCc2ccccc2)cn1` (stereo not drawn), the GI50 is 23.4 µM (inactive) with BT-549, 21.6 µM (inactive) with Hs-578T and 19.4 µM (inactive) in the assay with MCF7.

Consider `CC(C)=NNc1snnc1C(N)=O`, for which the GI50 in the assay on BT-549, with Hs-578T and in the assay with MCF7 was > 100 µM (inactive) in each case.

`COC(=O)c1ccc(C)cc1CC1Cc2ccc(C)cc2C1=O` (stereo not drawn): the GI50 in the assay with BT-549 is 12.2 µM (inactive); in the assay with Hs-578T it was 15 µM (inactive); with MCF7, 4.39 µM (inactive).

On to `O=c1[nH]nc(-c2ccccc2)c2[nH]c3c4ccccc4ccc3c12`, for which the GI50 was 1.79 µM (inactive) in the assay on Hs-578T and 0.331 µM (active) in the assay on MCF7.

As for `COC(=O)C1(CCC(C)=O)CCCCCC1=O` (stereo not drawn), the GI50 in the assay on BT-549 and in the assay with MCF7 was > 100 µM (inactive) in each case.

As for `O=C(Nc1ccccc1)c1cc2ccccc2c(/N=N\c2cccc([N+](=O)[O-])c2)c1O`, the values for the GI50 in the assay on BT-549, in the assay with Hs-578T and in the assay on MCF7 were > 100 µM (inactive), 21.2 µM (inactive) and > 100 µM (inactive), respectively.

For `COc1cc(Nc2cnc3cc(N)ccc3n2)cc(OC)c1OC`, the GI50 in the assay with XF498 was 81.5 µM (inactive); in the assay with DMS-273, 11.7 µM (inactive); with DLD-1, > 100 µM (inactive); with KM-20L2, > 100 µM (inactive).

With `CCCCn1c2c(n(CCCC)c1=S)-c1c(n(CCCC)c(=S)n1CCCC)S[Se][Se]S2`, the results for the GI50 in the assay on BT-549, in the assay with Hs-578T and in the assay with MCF7 were 4.55 µM (inactive), 5.25 µM (inactive) and 6.64 µM (inactive), respectively.

In the case of `COc1ccc(-c2c(C(C)=O)c(-c3ccccc3)n(C3OC(CO)C(O)C(O)C3O)c(=S)c2C#N)cc1` (stereo not drawn), in the assay with MCF7, the GI50 is > 100 µM (inactive).

In the case of `Cc1ccc(OCC2OC(n3cnc4c(Cl)nc(Cl)nc43)CC2Oc2ccc(C)cc2)cc1` (stereo not drawn), the GI50 in the assay with BT-549 is 2.17 µM (inactive); with Hs-578T, 1.9 µM (inactive); with MCF7, 1.85 µM (inactive).

Consider `Cc1ccc(S(=O)(=O)N2CCNCCN(S(=O)(=O)c3ccc(C)cc3)CCNCC2)cc1`, for which the GI50 was 19.1 µM (inactive) in the assay on BT-549, 17.8 µM (inactive) in the assay on Hs-578T and 27.3 µM (inactive) in the assay with MCF7.

Turning to `CCc1nc(N)nc(N)c1-c1ccc([N+](=O)[O-])c(NCc2ccccc2)c1`, the GI50 with BT-549 was 16.9 µM (inactive); with Hs-578T it was 13.8 µM (inactive); in the assay with MCF7 it was 13.6 µM (inactive).

`O=C1Oc2ccccc2C(=O)/C1=C\Nc1nc(-c2ccc(O)c(O)c2)cs1`: the GI50 is 5.77 µM (inactive) with BT-549, 15.3 µM (inactive) in the assay on Hs-578T and 3.94 µM (inactive) in the assay on MCF7.

`c1ccc2c3nnc(c2c1)SCCSCCCSCCS3`: the GI50 in the assay on Hs-578T is 32.4 µM (inactive); with MCF7, > 100 µM (inactive).

Regarding `O=[N+]([O-])c1cc(Cl)cnc1Br`, the values for the GI50 with BT-549, in the assay on Hs-578T and in the assay with MCF7 were 3.18 µM (inactive), 7.16 µM (inactive) and 1.32 µM (inactive), respectively.

Consider `CCOC(=O)c1c(SC(=O)c2ccc(OC)cc2)n(-c2ccccc2)c(=S)n(-c2ccccc2)c1=O`, for which the figures for the GI50 in the assay on Hs-578T and with MCF7 were 45.4 µM (inactive) and 30.9 µM (inactive), respectively.

With `CN1CCC2(CC1)SSC1(CCN(C)CC1)S2`, the GI50 with BT-549 was 23.9 µM (inactive); in the assay on Hs-578T, > 100 µM (inactive).

On to `COc1cc([C@@H]2c3cc4c(cc3[C@H](OC3OC5COC(c6ccco6)OC5C(O)C3O)C3COC(=O)[C@@H]32)OCO4)cc(OC)c1OC` (stereo partly drawn), for which the GI50 is 3.21 µM (inactive) in the assay on BT-549, 5.01 µM (inactive) with Hs-578T and 3.85 µM (inactive) in the assay with MCF7.

On to `OCc1ccc2c(c1)CC1(C2)Cc2cc3c(cc2C1)CCC3`, for which the GI50 in the assay with BT-549 was 2.81 µM (inactive); in the assay with Hs-578T, 4.02 µM (inactive); in the assay with MCF7, 2.5 µM (inactive).

Regarding `COI1NC(=O)c2ccccc21`, the GI50 with Hs-578T and with MCF7 was > 100 µM (inactive) throughout.

Turning to `CC1CC/C(=C\c2ccc(Cl)cc2)C2OC(N)=C(C#N)C(c3ccc(Cl)cc3)=C12` (stereo not drawn), the values for the GI50 with BT-549, in the assay with Hs-578T and in the assay with MCF7 were 15.2 µM (inactive), 15.6 µM (inactive) and 11.4 µM (inactive), respectively.

Take `O=c1oc2ccc(Cl)cc2cc1-c1cn2ccsc2n1`: the GI50 with BT-549 is 24.1 µM (inactive); in the assay with Hs-578T it was 76.4 µM (inactive); in the assay on MCF7 it was 20.9 µM (inactive).

Take `CCOC(=O)/C(C#N)=C/c1ccc(SCc2ccco2)c([N+](=O)[O-])c1`: the GI50 in the assay on BT-549, in the assay with Hs-578T and in the assay on MCF7 was > 100 µM (inactive) throughout.

For the compound `Cn1c(NC(=O)NC23CC4CC(CC(C4)C2)C3)nc2ccccc21`, the GI50 in the assay on SNB-78 was 23.8 µM (inactive); in the assay with DMS-273, 26.5 µM (inactive); in the assay on DLD-1, > 100 µM (inactive); in the assay on KM-20L2, > 100 µM (inactive).

In the case of `Cc1cc(O)c(C=O)c2c1C(=O)Oc1c(CO)c(O)c3c(c1O2)C(O)OC3=O` (stereo not drawn) [SLAZINIC ACID], the GI50 with BT-549 is > 100 µM (inactive); with Hs-578T, 31.6 µM (inactive); in the assay with MCF7, 24.5 µM (inactive).

Consider `COC(=O)CCCC(=O)O`, for which the GI50 in the assay with BT-549, in the assay on Hs-578T and in the assay with MCF7 was > 100 µM (inactive) throughout.

For `C=CC[C@]1(/C=N/O)CN(S(=O)(=O)CC[Si](C)(C)C)C[C@H]2CC=CC[C@H]21`, the GI50 with BT-549 was 28.5 µM (inactive); in the assay on MCF7 it was 17.3 µM (inactive).

As for `OCCN(C1=NCCN1)/[N+](=C/c1ccccc1O)[CH-]c1ccccc1O`, the GI50 with BT-549 was 37.8 µM (inactive); in the assay with Hs-578T, > 100 µM (inactive); with MCF7 it was > 100 µM (inactive).

Take `COc1ccc(NCc2cc(OC)c(OC)c(OC)c2)cc1`: the values for the GI50 with DMS-273, in the assay with DLD-1 and with KM-20L2 were 0.143 µM (active), 0.345 µM (active) and 0.228 µM (active), respectively.

Turning to `CCCCCn1c(=O)c2c(=O)[nH][nH]c2c2ccccc21`, the GI50 with BT-549, in the assay with Hs-578T and in the assay with MCF7 was > 100 µM (inactive) each time.

On to `O=[N+]([O-])c1ccc(C2=NN(c3ccccc3)C[N+](c3ccc(Br)cc3)=N2)cc1`, for which the GI50 in the assay with SNB-78, in the assay with DMS-273, in the assay on DLD-1 and with KM-20L2 was > 100 µM (inactive) each time.
